Drawing on patent US20080045514A1 (Cytovia, Inc., priority 2006, published 2008), this text covers EC50 for 20 compounds.

What all share (assay type): cell-based
The test system of experiment [1] is human breast cancer cell line T-47D. As to the kind of experiment: Caspase cascade activation (EC50), T-47D. Particulars: Homo sapiens, T47D cells. Here is the method: (§1) Human breast cancer cell lines T-47D, human hepatocellular carcinoma cell line SNU398, human colon carcinoma cell line HCT116, human cancer cell line H1299, human Burkitt's lymphoma cell line Namalwa, human lymphoma cell line Raji, and human B cell lymphoblastoid cell line Ramos were grown according to media component mixtures designated by American Type Culture Collection+10% FCS (Invitrogen Corporation), in a 5% CO2-95% humidity incubator at 37° C. T-47D and H1299 cells were maintained at a cell density between 50 and 80% confluency at a cell density of 0.1 to 0.6×10^6 cells/mL. Cells were harvested at 600×g and resuspended at 0.65×10^6 cells/mL into appropriate media+10% FCS. An aliquot of 22.5 μL of cells was added to a well of a 384-well microtiter plate containing 2.5 μL of a 10% DMSO in RPMI-1640 media solution containing 0.16 to 100 μM of 3-(2-chlorophenyl)-6-(3,4-methylenedioxyphenyl)-7H-[1,2,4]triazolo[3,4-b][1,3,4]thiadiazine or other test compound (0.016 to 10 μM final). An aliquot of 22.5 μL of cells was added to a well of a 384-well microtiter plate containing 2.5 μL of a 10% DMSO in RPMI-1640 media solution without test compound as the control sample. The samples were mixed by agitation and then incubated at 37° C. for 48 h in a 5% CO2-95% humidity incubator. After incubation, the samples were removed from the incubator and 25 μL of a solution containing 14 μM of N—(Ac-DEVD)-N′-ethoxycarbonyl-R110 (SEQ ID No.:1) fluorogenic substrate (Cytovia, Inc.; WO99/18856), 20% sucrose (Sigma), 20 mM DTT (Sigma), 200 mM NaCl (Sigma), 40 mM Na PIPES buffer pH 7.2 (Sigma), and 500 μg/mL lysolecithin (Calbiochem) was added. The samples were mixed by agitation and incubated at room temperature. Using a fluorescent plate reader (Model SPECTRAfluor Plus, Tecan), an initial reading (T=0) was made approximately 1-2 min after addition of the substrate solution, employing excitation at 485 nm and emission at 530 nm, to determine the background fluorescence of the control sample. After the 3 h incubation, the samples were read for fluorescence as above (T=3 h). Calculation: The Relative Fluorescence Unit values (RFU) were used to calculate the sample readings as follows: RFU(T=3H)−Control RFU(T=0)=Net RFU(T=3h) The activity of caspase cascade activation was determined by the ratio of the net RFU value for 3-(2-chlorophenyl)-6-(3,4-methylenedioxyphenyl)-7H-[1,2,4]triazolo[3,4-b][1,3,4]thiadiazine (Example P) or other test compound to that of control samples. The EC50 (nM) was determined by a sigmoidal dose-response calculation (Prism 3.0, GraphPad Software Inc.).

Experiment [2] relates to human colon carcinoma cell line HCT116. As to the kind of experiment: Caspase cascade activation (EC50), HCT116. Particulars: Homo sapiens, HCT-116, HCT116 cells. Here is the method:
as §1

The subject of experiment [3] is human Burkitt's lymphoma cell line Namalwa. As to the kind of experiment: Caspase cascade activation (EC50), Namalwa. Particulars: Homo sapiens, Burkitts lymphoma cell, Namalwa cells. Here is the method:
as §1

In experiment [4] the test system is human hepatocellular carcinoma cell line SNU398. As to the kind of experiment: Caspase cascade activation (EC50), SNU398. Conditions: Homo sapiens, SNU-398, SNU398 cells. Here is the method: as §1
[5] abbreviates: caspase cascade activation, read-out: caspase potency (EC50) T47D.
The mark [6] stands for this setting: caspase cascade activation, read-out: caspase potency (EC50) HCT116.
Setting [7] is: caspase cascade activation, read-out: caspase potency (EC50) Namalwa.
Where [8] appears, read: caspase cascade activation, read-out: caspase potency (EC50) SNU398.

Where two headings read alike, the source gives them in different places.

Consider `COc1cc(C2=Nn3c(nnc3-c3ccccc3OC)SC2)ccc1N` [Example 57, 6-(4-Amino-3-methoxyphenyl)-3-(2-methoxyphenyl)-7H-[1,2,4]triazolo[3,4-b][1,3,4]thiadiazine], for which the EC50 in experiment [1] (setting [5]) is 2.64 µM; in experiment [2] (setting [6]), 2.87 µM; in experiment [3] (setting [7]), 2.33 µM; in experiment [4] (setting [8]), 2.28 µM.
`COc1cc(OC)cc(-c2nnc3n2N=C(c2ccc4[nH]c(=O)oc4c2)CS3)c1` [Example 34, 6-(2,3-Dihydro-2-oxobenzo[d]oxazol-6-yl)-3-(3,5-dimethoxyphenyl)-7H-[1,2,4]triazolo[3,4-b][1,3,4]thiadiazine]: the EC50 in experiment [1] (setting [5]) worked out at 4.61 µM; in experiment [2] (setting [6]), 5.09 µM; in experiment [3] (setting [7]) it was 4.93 µM; in experiment [4] (setting [8]) it was 4.92 µM.
Taken in the same sequence, the figures for `COc1cc(C)c(Cl)cc1C1=Nn2c(nnc2-c2ccccc2OC)SC1` [Example 49, 6-(5-Chloro-2-methoxy-4-methylphenyl)-3-(2-methoxyphenyl)-7H-[1,2,4]triazolo[3,4-b][1,3,4]thiadiazine] were > 10 µM, > 10 µM, 5.59 µM and 5.65 µM.
In the case of `COc1ccccc1-c1nnc2n1N=C(c1ccc([N+](=O)[O-])c(OC)c1)CS2` [Example 45, 6-(3-Methoxy-4-nitrophenyl)-3-(2-methoxyphenyl)-7H-[1,2,4]triazolo[3,4-b][1,3,4]thiadiazine], the EC50 in experiment [1] (setting [5]), in experiment [2] (setting [6]), in experiment [3] (setting [7]) and in experiment [4] (setting [8]) was > 10 µM throughout.
Consider `COc1ccccc1-c1n[nH]c2nc(=O)c(-c3ccc(C)cc3)nn12` [Example 38, 3-(2-Methoxyphenyl)-6-(4-methylphenyl)-1H-[1,2,4]triazolo[4,3-b][1,2,4]triazin-7-one], for which the EC50 in experiment [1] (setting [5]), in experiment [2] (setting [6]), in experiment [3] (setting [7]) and in experiment [4] (setting [8]) was > 10 µM each time.
With `COc1ccccc1C1=Nn2c(nnc2-c2ccccc2OC)SC1` [Example 64, 3-(2-Methoxyphenyl)-6-(2-methoxylphenyl)-7H-[1,2,4]triazolo[3,4-b][1,3,4]thiadiazine], the EC50 in experiment [1] (setting [5]), in experiment [2] (setting [6]), in experiment [3] (setting [7]) and in experiment [4] (setting [8]) was > 10 µM throughout.
As to `COc1ccccc1-c1nnc2n1N=C(c1ccc(N)c(N)c1)CS2` [Example 60, 6-(3,4-Diaminophenyl)-3-(2-methoxyphenyl)-7H-[1,2,4]triazolo[3,4-b][1,3,4]thiadiazine], the half-maximal effective concentration (EC50) in experiment [1] (setting [5]), in experiment [2] (setting [6]), in experiment [3] (setting [7]) and in experiment [4] (setting [8]) was > 10 µM throughout.
In the case of `Cc1ccc(C2=Nn3c(nnc3-c3ccccc3S(C)(=O)=O)SC2)cc1` [Example 73, 3-(2-Methylsulfonylphenyl)-6-(4-methylphenyl)-7H-[1,2,4]triazolo[3,4-b][1,3,4]thiadiazine], the 50% effective concentration (EC50) in experiment [1] (setting [5]) is > 10 µM; in experiment [2] (setting [6]), > 10 µM; in experiment [3] (setting [7]), > 10 µM; in experiment [4] (setting [8]), > 1 µM.
For the compound `Cc1ccc(C2=Nn3c(nnc3-c3ccoc3C)SC2)cc1` [Example 83, 3-(2-Methylfuran-3-yl)-6-(4-methylphenyl)-7H-[1,2,4]triazolo[3,4-b][1,3,4]thiadiazine], the 50% effective concentration (EC50) is 2.54 µM in experiment [1] (setting [5]), 0.683 µM in experiment [2] (setting [6]), 0.332 µM in experiment [3] (setting [7]) and 0.523 µM in experiment [4] (setting [8]).
For `Cc1ccc(C2=Nn3c(nnc3-c3c(C)nc4ccccn34)SC2)cc1` [Example 98, 3-(2-Methyl-imidazo[1,2-a]pyridin-3-yl)-6-(4-methylphenyl)-7H-[1,2,4]triazolo[3,4-b][1,3,4]thiadiazine], the EC50 in experiment [1] (read-out: Caspase potency (EC50) T47D) stood at 0.166 µM; in experiment [2] (read-out: Caspase potency (EC50) HCT116), 0.098 µM; in experiment [3] (read-out: Caspase potency (EC50) Namalwa), 0.066 µM; in experiment [4] (read-out: Caspase potency (EC50) SNU398) it was 0.059 µM.
Turning to `COc1ccccc1-c1nnc2n1N=C(c1cc(Br)c(N)c(Br)c1)CS2` [Example 78, 6-(4-Amino-3,5-dibromophenyl)-3-(2-methoxyphenyl)-7H-[1,2,4]triazolo[3,4-b][1,3,4]thiadiazine], the EC50 in experiment [1] (setting [5]) is 0.259 µM; in experiment [2] (setting [6]) it was 0.124 µM; in experiment [3] (setting [7]) it was 0.073 µM; in experiment [4] (setting [8]), 0.051 µM.
On to `COc1ccccc1-c1nnc2n1N=C(c1ccc(Cl)c(Cl)c1)CS2` [Example Q3], for which the EC50 in experiment [1] (setting [5]) is > 10 µM; in experiment [2] (setting [6]) it was > 10 µM; in experiment [3] (setting [7]), 0.292 µM; in experiment [4] (setting [8]), > 10 µM.
`Cc1ccc(C2=Nn3c(nnc3-c3ccccc3N)SC2)cc1` [Example 74, 3-(2-Aminophenyl)-6-(4-methylphenyl)-7H-[1,2,4]triazolo[3,4-b][1,3,4]thiadiazine]: the EC50 in experiment [1] (setting [5]) is > 10 µM; in experiment [2] (setting [6]), 0.557 µM; in experiment [3] (setting [7]) it was 0.507 µM; in experiment [4] (setting [8]), 0.529 µM.
In the case of `Cc1ccccc1-c1nnc2n1N=C(c1ccc(C(C)(C)C)cc1)CS2` [Example 51, 6-(4-tert-Butylphenyl)-3-(2-methylphenyl)-7H-[1,2,4]triazolo[3,4-b][1,3,4]thiadiazine], the EC50 in experiment [1] (setting [5]), in experiment [2] (setting [6]), in experiment [3] (setting [7]) and in experiment [4] (setting [8]) was > 10 µM in each case.
Take `COc1cccc(C2=Nn3c(nnc3-c3ccc(Cl)cc3Cl)SC2)c1` [Example O3]: the EC50 in experiment [1] (setting [5]) is 1.29 µM; in experiment [2] (setting [6]), 2.62 µM; in experiment [3] (setting [7]) it was 0.585 µM; in experiment [4] (setting [8]) it was 0.765 µM.
The corresponding values for `Cc1ccc(C2=Nn3c(nnc3-c3cccn3C)SC2)cc1` [Example 94, 3-(1-Methyl-1H-pyrrol-2-yl)-6-(4-methylphenyl)-7H-[1,2,4]triazolo[3,4-b][1,3,4]thiadiazine] are 2.63 µM, 5.51 µM, 1.29 µM and 1.44 µM.
For the compound `COc1ccccc1-c1nnc2n1N=C(c1ccc(Cl)c([N+](=O)[O-])c1)CS2` [Example 55, 6-(4-Chloro-3-nitrophenyl)-3-(2-methoxyphenyl)-7H-[1,2,4]triazolo[3,4-b][1,3,4]thiadiazine], the EC50 in experiment [1] (setting [5]) is 2.04 µM; in experiment [2] (setting [6]) it was > 10 µM; in experiment [3] (setting [7]), > 10 µM; in experiment [4] (setting [8]), 1.87 µM.
Consider `COc1ccccc1-c1nnc2n1N=C(c1cc(I)c(N)c(I)c1)CS2` [Example 79, 6-(4-Amino-3,5-diiodophenyl)-3-(2-methoxyphenyl)-7H-[1,2,4]triazolo[3,4-b][1,3,4]thiadiazine], for which the EC50 in experiment [1] (setting [5]) was found to be 0.907 µM; in experiment [2] (setting [6]) it was 1.25 µM; in experiment [3] (setting [7]) it was 0.304 µM; in experiment [4] (setting [8]), 0.562 µM.
Taken in the same sequence, the figures for `Cc1ccc(C2=Nn3c(nnc3-c3ccc[nH]3)SC2)cc1` [Example 92, 6-(4-Methylphenyl)-3-(1H-pyrrol-2-yl)-7H-[1,2,4]triazolo[3,4-b][1,3,4]thiadiazine] were > 10 µM, > 10 µM, > 10 µM and > 10 µM.
The corresponding values for `COc1cc(-c2n[nH]c3nc(=O)c(-c4ccc(C)cc4)nn23)cc(OC)c1OC` [Example 37, 3-(3,4,5-Trimethoxyphenyl)-6-(4-methylphenyl)-1H-[1,2,4]triazolo[4,3-b][1,2,4]triazin-7-one] are 5.83 µM, > 10 µM, > 10 µM and 5.04 µM.

What is called EC50 is the concentration that produces a half-maximal response.
